Experimental data reported in PubChem BioAssay AID248 (DTP/NCI, 2004).
Values joined by “and” are separate entries in the source; they are usually repeats but may differ in a detail not shown here. Identical values can stand only once. Toxic doses and inconclusive results are not listed. Rule as the data show it: active = T/C of 150% or more; inactive = T/C below 125%.

Test system: L1210 leukemia ip in BDF1 mice, survival T/C
Assay: NCI In Vivo Anticancer Drug Screen. Data for tumor model L1210 Leukemia (intraperitoneal) in B6D2F1 (BDF1) mice
Details: endpoint: mean survival time, higher = longer survival
Summary of the method: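 Transplanted-tumor mice were given test agent; controls received vehicle only. Survival readings from the two groups were divided (treated over control).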

[1] = dose: 100.0 mg/kg/injection, schedule: Q01DX009 (ip), vehicle: saline with Tween-80
[2] = dose: 200.0 mg/kg/injection, schedule: Q01DX009 (ip), vehicle: saline with Tween-80
[3] = dose: 100.0 mg/kg/injection, schedule: Q04DX003 (ip), vehicle: saline with Tween-80
[4] = dose: 200.0 mg/kg/injection, schedule: Q04DX003 (ip), vehicle: saline with Tween-80
[5] = dose: 400.0 mg/kg/injection, schedule: Q04DX003 (ip), vehicle: saline with Tween-80
[6] = dose: 100.0 mg/kg/injection, schedule: Q04DX003 (ip), vehicle: Klucel (hydroxypropylcellulose) (HPC)
[7] = dose: 200.0 mg/kg/injection, schedule: Q04DX003 (ip), vehicle: Klucel (hydroxypropylcellulose) (HPC)
[8] = dose: 400.0 mg/kg/injection, schedule: Q04DX003 (ip), vehicle: Klucel (hydroxypropylcellulose) (HPC)

Measured: T/C

N/C(=N/N=C/c1ccccc1O)N/N=C\c1ccccc1O
inactive: dose: 15.0 mg/kg/injection, schedule: Q01DX Z (ip), vehicle: carboxymethylcellulose (CMC) 93 % of control | dose: 30.0 mg/kg/injection, schedule: Q01DX Z (ip), vehicle: carboxymethylcellulose (CMC) 92 % of control | dose: 60.0 mg/kg/injection, schedule: Q01DX Z (ip), vehicle: carboxymethylcellulose (CMC) 97 % of control and 89 % of control | dose: 120.0 mg/kg/injection, schedule: Q01DX Z (ip), vehicle: carboxymethylcellulose (CMC) 92 % of control and 100 % of control | dose: 240.0 mg/kg/injection, schedule: Q01DX Z (ip), vehicle: carboxymethylcellulose (CMC) 100 % of control | dose: 240.0 mg/kg/injection, schedule: Q01DX Z (oral), vehicle: carboxymethylcellulose (CMC) 105 % of control | dose: 480.0 mg/kg/injection, schedule: Q01DX Z (ip), vehicle: carboxymethylcellulose (CMC) 94 % of control | dose: 480.0 mg/kg/injection, schedule: Q01DX Z (oral), vehicle: carboxymethylcellulose (CMC) 105 % of control | dose: 960.0 mg/kg/injection, schedule: Q01DX Z (oral), vehicle: carboxymethylcellulose (CMC) 105 % of control | dose: 1920.0 mg/kg/injection, schedule: Q01DX Z (oral), vehicle: carboxymethylcellulose (CMC) 113 % of control

CCOC(=O)c1ccc(NC(=O)Nc2nccs2)cc1
inactive: dose: 88.0 mg/kg/injection, schedule: Q01DX009 (ip), vehicle: saline with Tween-80 113 % of control | [1] 123 % of control | dose: 132.0 mg/kg/injection, schedule: Q01DX009 (ip), vehicle: saline with Tween-80 109 % of control | [2] 122 % of control | dose: 300.0 mg/kg/injection, schedule: Q01DX009 (ip), vehicle: saline with Tween-80 124 % of control

O=S(=O)(OCCCl)c1ccc(Cl)c(Cl)c1
inactive: dose: 100.0 mg/kg/injection, schedule: Q01DX001 (ip), vehicle: saline with Tween-80 92 % of control | dose: 200.0 mg/kg/injection, schedule: Q01DX001 (ip), vehicle: saline with Tween-80 100 % of control | dose: 400.0 mg/kg/injection, schedule: Q01DX001 (ip), vehicle: saline with Tween-80 107 % of control

CCOC(=O)c1cc([N+](=O)[O-])c(C)s1
inactive: dose: 100.0 mg/kg/injection, schedule: Q01DX009 (sc), vehicle: olive oil, sesame oil, peanut oil 104 % of control | dose: 100.0 mg/kg/injection, schedule: Q04DX003 (sc), vehicle: olive oil, sesame oil, peanut oil 101 % of control | dose: 200.0 mg/kg/injection, schedule: Q01DX009 (sc), vehicle: olive oil, sesame oil, peanut oil 95 % of control | dose: 200.0 mg/kg/injection, schedule: Q04DX003 (sc), vehicle: olive oil, sesame oil, peanut oil 107 % of control | dose: 400.0 mg/kg/injection, schedule: Q01DX009 (sc), vehicle: olive oil, sesame oil, peanut oil 90 % of control | dose: 400.0 mg/kg/injection, schedule: Q04DX003 (sc), vehicle: olive oil, sesame oil, peanut oil 106 % of control

Cc1ccccc1C(=O)Nc1ccccc1
inactive: dose: 50.0 mg/kg/injection, schedule: Q01DX009 (ip), vehicle: saline 103 % of control | dose: 100.0 mg/kg/injection, schedule: Q01DX009 (ip), vehicle: saline 100 % of control | dose: 200.0 mg/kg/injection, schedule: Q01DX009 (ip), vehicle: saline 103 % of control

CCCN(CCC)C(=O)CCC(C)O (stereo unspecified)
inactive: dose: 100.0 mg/kg/injection, schedule: Q01DX001 (ip), vehicle: acetone 113 % of control | dose: 200.0 mg/kg/injection, schedule: Q01DX001 (ip), vehicle: acetone 101 % of control | dose: 400.0 mg/kg/injection, schedule: Q01DX001 (ip), vehicle: acetone 103 % of control

OC(Cc1nccc2ccccc12)(C(F)(F)F)C(F)(F)F
inactive: [1] 93 % of control | [3] 100 % of control | [2] 93 % of control | [4] 101 % of control | dose: 400.0 mg/kg/injection, schedule: Q01DX009 (ip), vehicle: saline with Tween-80 94 % of control | [5] 100 % of control

COC(=O)/C=C(/Nc1cccc2ccccc12)C(=O)OC
inactive: dose: 50.0 mg/kg/injection, schedule: Q01DX001 (ip), vehicle: Klucel (hydroxypropylcellulose) (HPC) 102 % of control | dose: 100.0 mg/kg/injection, schedule: Q01DX001 (ip), vehicle: Klucel (hydroxypropylcellulose) (HPC) 96 % of control | dose: 200.0 mg/kg/injection, schedule: Q01DX001 (ip), vehicle: Klucel (hydroxypropylcellulose) (HPC) 114 % of control

Cc1ccc(NC(=O)OCCOc2ccc(Cl)cc2)c([N+](=O)[O-])c1
inactive: dose: 50.0 mg/kg/injection, schedule: Q01DX009 (ip), vehicle: Klucel (hydroxypropylcellulose) (HPC) 97 % of control | dose: 100.0 mg/kg/injection, schedule: Q01DX009 (ip), vehicle: Klucel (hydroxypropylcellulose) (HPC) 87 % of control | [6] 99 % of control | dose: 200.0 mg/kg/injection, schedule: Q01DX009 (ip), vehicle: Klucel (hydroxypropylcellulose) (HPC) 90 % of control | [7] 104 % of control | [8] 90 % of control

C=CCNc1nnnn1CC=C
inactive: [3] 102 % of control | [4] 102 % of control | [5] 96 % of control

CCCCCCCCCC(=O)Nc1ccc(CC)cc1
inactive: dose: 100.0 mg/kg/injection, schedule: Q04DX002 (ip), vehicle: Klucel (hydroxypropylcellulose) (HPC) 94 % of control | dose: 200.0 mg/kg/injection, schedule: Q04DX002 (ip), vehicle: Klucel (hydroxypropylcellulose) (HPC) 101 % of control | dose: 400.0 mg/kg/injection, schedule: Q04DX002 (ip), vehicle: Klucel (hydroxypropylcellulose) (HPC) 111 % of control

C=CC(C)(O)C(C)(C)C (stereo unspecified)
inactive: dose: 50.0 mg/kg/injection, schedule: Q01DX009 (ip), vehicle: saline with Tween-80 100 % of control | [1] 96 % of control | [2] 100 % of control

Cc1c(C)c2c(C(N)=O)c3ccccc3nc2c2ccccc12
inactive: dose: 50.0 mg/kg/injection, schedule: Q04DX003 (ip), vehicle: Klucel (hydroxypropylcellulose) (HPC) 100 % of control | [6] 100 % of control | [7] 92 % of control | [8] 97 % of control

CSc1nnc2c3ccccc3ccn12
inactive: dose: 100.0 mg/kg/injection, schedule: Q01DX001 (ip), vehicle: carboxymethylcellulose (CMC) 104 % of control | dose: 200.0 mg/kg/injection, schedule: Q01DX001 (ip), vehicle: carboxymethylcellulose (CMC) 96 % of control | dose: 400.0 mg/kg/injection, schedule: Q01DX001 (ip), vehicle: carboxymethylcellulose (CMC) 93 % of control
